# Assay results reported in patent US8211909B2, “Treatment of antibiotic-resistant bacteria infection” (TaiGen Biotechnology Co., Ltd., priority 2008, dated 2012).
# Read-outs that look alike come from different tables or passages of the source.
# What was measured:
# [1] = tested on: Methicillin-resistant Staphylococcus aureus (MRSA) isolates; assay: MIC by broth microdilution (CLSI) against CAN-ICU MRSA isolates; format: cell-based; conditions: for MIC50 / MIC90 / MIC: Staphylococcus aureus; for MIC50: read-out: MIC50; for MIC90: read-out: MIC90
# Excerpt: MRSA isolates (n=193) were obtained as part of the Canadian National Intensive Care Unit (CAN-ICU) Study. 19 medical centers from all regions of Canada with active ICUs participated in the CAN-ICU study included. They were requested to only obtain “clinically significant” specimens from patients with a presumed infectious disease. Surveillance swabs, eye, ear, nose and throat swabs were excluded. Anaerobic organisms and fungal organisms were also excluded.
# From September 2005-June 2006 (inclusive), each center collected a maximum of 300 consecutive pathogens isolated from blood, urine, tissue/wound, and respiratory specimens (one pathogen per cultured site per patient) of ICU patients. These isolates were shipped to the reference laboratory (Health Sciences Centre, Winnipeg, Canada) on Amies charcoal swabs, subcultured in appropriate media, and stocked in skim milk at −80° C.
# All isolates underwent mecA PCR, as well as molecular characterization (including PVL analysis and fingerprinting), as previously described, to assess whether they were community-associated or healthcare-associated (Christianson et al., J Clin Microbiol. 2007, 45 (6): 1904-11; Mulvey et al., J Clin. Microbiol. 2001, 39(10): 3481-5; Mulvey et al., Emerg Infect Dis. 2005,11(6): 844-50; Oliveira et al., Antimicrob Agents Chemother. 2002, 46(7): 2155-61). The isolates were also subtyped using pulsed-field gel electrophoresis (PFGE) following the Canadian standardized protocol as previously described (Mulvey et al., J Clin Microbiol. 2001, 39(10): 3481-5). Their PFGE fingerprints thus obtained were analyzed with BioNumerics v3.5 (Applied Maths St. Marten-Latem, Belgium) using a position tolerance of 1.0 and an optimization of 1.0. Strain relatedness was determined as previously described (Tenover et al., 1995). The fingerprints of the isolates were compared to the national MRSA fingerprint database and were grouped into one of 10 Canadian epidemic MRSA (CMRSA-1, CMRSA-2, etc) as previously described (Mulvey et al., Emerg Infect Dis. 2005,11(6):844-50).
# Compound 1 and other antibiotics were tested for their inhibitory activity against the MRSA isolates using the broth microdilution guidelines as stipulated by the Clinical and Laboratory Standards Institute.
# [2] = tested on: Vancomycin-resistant E. faecium; assay: MIC by agar dilution (CLSI-M100-S18), Taiwan Enterococci isolates; format: cell-based, Enterococcus faecium
# Protocol: Compound 1 was tested for its inhibitory effect against multidrug-resistant Methicillin-resistant Staphylococcus aureus and Enterococci obtained by 10 medical centers in all regions of Taiwan. MICs were determined using the agar dilution methods recommended by the Clinical and Laboratory Standards Institute (CLSI-M100-S18).
# [3] = tested on: S. pneumoniae; assay: CANWARD 2007 gram-positive cocci, CLSI broth microdilution; format: cell-based, Streptococcus pneumoniae; parameters: MIC50 / MIC90: unit not given here
# Protocol: From January-December 2007, 12 hospitals across Canada submitted isolates from patients attending hospital clinics, emergency rooms, medical and surgical wards, and intensive care units. 7881 isolates (CANWARD 2007) were collected including 3473 gram-positive cocci. Susceptibility testing for Compound 1 and Levofloxacin was performed using the Clinical and Laboratory Standards Institute broth microdilution.
# [4] = MRSA / USA100, USA 100/800 (HA-MRSA)
# [5] = MRSA / USA200, USA 200 (HA-MRSA)
# [6] = MRSA / USA300, USA 300 (CA-MRSA)
# [7] = MRSA / USA400, USA 400 (CA-MRSA)
# [8] = MRSA / USA600, USA 600 (HA-MRSA)
# [9] = Enterococcus faecium, Vancomycin-resistant E. faecium (n = 78)
smiles,measurement,setting,value
"COc1c(N2C[C@@H](C)C[C@H](N)C2)ccc2c(=O)c(C(=O)O)cn(C3CC3)c12 [Compound 1, (3S,5S)-7-[3-amino-5-methyl-piperidinyl]-1-cyclopropyl-1,4-dihydro-8-methoxy-4-oxo-3-quinolinecarboxylic acid]",activity against community-associated versus healthcare-associated MRSA strains (in words),[1]; CA-MRSA vs HA-MRSA strains,more active against community-associated-MRSA strains than healthcare-associated-MRSA strains
same,inhibition of MRSA (in words),[1]; MRSA isolates,effectively inhibited
same,MIC50,[1]; [4],4 µg/mL
same,MIC90,[1]; [4],> 4 µg/mL
same,MIC50,[1]; [5],2 µg/mL
same,MIC90,[1]; [5],2 µg/mL
same,MIC50,[1]; [6],0.5 µg/mL
same,MIC90,[1]; [6],0.5 µg/mL
same,MIC50,[1]; [7],0.06 µg/mL
same,MIC90,[1]; [7],0.06 µg/mL
same,MIC50,[1]; [8],2 µg/mL
same,MIC90,[1]; [8],2 µg/mL
same,MIC50,[1]; MRSA (n = 193),4 µg/mL
same,MIC90,[1]; MRSA (n = 193),> 4 µg/mL
same,MIC,"[1]; MRSA (n = 193), read-out: MIC Range Max",> 4 µg/mL
same,MIC,"[1]; MRSA (n = 193), read-out: MIC Range Min",0.03 µg/mL
same,MIC50,[2]; [9],4 µg/mL
same,MIC90,[2]; [9],16 µg/mL
same,MIC Range,[2]; Vancomycin-resistant E. faecium (n = 78),0.06 to 16 µg/mL
same,inhibition (in words),[2]; Vancomycin-resistant Enterococcus faecium,effective
same,activity compared with Levofloxacin (in words),"[3]; PenI-SPN, PenR-SPN, CipR-SPN",more active than Levofloxacin
same,MIC50,[3]; SPN CipR (29),0.03
same,MIC90,[3]; SPN CipR (29),0.12
same,MIC50,[3]; SPN PenI (103),0.015/0.015
same,MIC90,[3]; SPN PenI (103),0.015/0.015
same,MIC50,[3]; SPN PenR (34),0.015
same,MIC90,[3]; SPN PenR (34),0.03
same,MIC50,[3]; SPN PenS (519),0.015/0.015
same,MIC90,[3]; SPN PenS (519),0.015/0.015
same,MIC50,[3]; SPN-All (656),0.015/0.015
same,MIC90,[3]; SPN-All (656),0.015/0.015
